# According to patent US4876260A, “Oxathiolanes” (State of Israel, Israel Institute of Biological Research, priority 1988, dated 1989):
# Tests used:
# [1] = tested on: mice; assay: Pharmacodynamic profile and general toxicity in mice; format: in vivo, CD-1 mice
# Description: Male white mice of the CD-1 strain supplied by Charles River Ltd. (U.K.) were used throughout. An acclimatization period of at least three days was allowed between arrival and commencement of a particular experimental series. The animals were fed a complete commercial pelleted rodent diet without restriction during the acclimatization and study periods. Animals had free access to tap water. Body weights during testing were mostly within 20-28 g.
# Test materials were prepared as aqueous solutions in physiological saline (0.9% NaCl), up to a maximum concentration of 10 mg./ml. All materials were freshly prepared on the morning prior to each dosing session. Dosages were expressed gravimetrically (mg./kg.), in terms of the materials as received.
# Groups of mice (mostly n=5) received either i.v. or oral administration of the test materials at various dose levels. Dose volumes appropriate for respective dose levels selected, were determined for each animal according to body weights on the day of dosing. Any behavioral changes occurring during one to two hours after administration, as well as incidence of death up to 24 hours after dosing were recorded.
# [2] = target: T1, M1 muscarinic receptors (3H-PZ sites, frontal cortex) (Rattus norvegicus, UniProt P08482); assay: Displacement of 3H-PZ from rat frontal cortex homogenate; format: binding
# T1 sequence (P08482 1-460): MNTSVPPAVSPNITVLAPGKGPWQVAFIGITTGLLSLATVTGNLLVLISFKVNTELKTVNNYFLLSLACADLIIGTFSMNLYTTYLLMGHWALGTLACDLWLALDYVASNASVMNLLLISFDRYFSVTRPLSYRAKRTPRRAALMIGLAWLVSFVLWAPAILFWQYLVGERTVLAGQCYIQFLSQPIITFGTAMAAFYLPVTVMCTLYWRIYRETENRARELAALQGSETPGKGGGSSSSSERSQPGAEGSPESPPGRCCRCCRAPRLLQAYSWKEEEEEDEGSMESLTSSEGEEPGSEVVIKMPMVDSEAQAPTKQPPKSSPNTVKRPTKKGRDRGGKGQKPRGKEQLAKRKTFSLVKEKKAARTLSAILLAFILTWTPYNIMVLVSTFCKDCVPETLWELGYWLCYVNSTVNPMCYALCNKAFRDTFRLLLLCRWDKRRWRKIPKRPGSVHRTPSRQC
# [3] = tested on: isolated guinea-pig ileum; assay: Contraction of isolated guinea-pig ileum preparation
# Excerpt: (§1) From this Table, it appears that compounds (III) were not so effective in contracting the guinea pig ileum preparation.
# [4] = target: muscarinic receptors (3H-CD sites, frontal cortex); assay: Displacement of 3H-CD from rat frontal cortex homogenate; format: binding; conditions: (c') frontal cortex
# [5] = target: muscarinic receptors (3H-QNB sites, frontal cortex); format: binding, rat; conditions: (b') frontal cortex
# [6] = tested on: ACh-induced contractions of guinea-pig ileum; assay: Blocking of ACh-induced contractions of isolated guinea-pig ileum; conditions: listed as AF122B
# Excerpt: as §1
# [7] = tested on: muscarinic receptors (3H-QNB sites, cerebellum, mainly M2); assay: biochemical; format: binding, rat; conditions: (k) Ki(3H-QNB) frontal cortex : Ki(3H-QNB) cerebellum
# [8] = target: T2, muscarinic receptors (3H-QNB sites, cerebellum, mainly M2) (Rattus norvegicus, UniProt P10980); assay: biochemical; format: binding; conditions: Ki(3H-QNB), (b") cerebellum
# T2 sequence (P10980 1-466): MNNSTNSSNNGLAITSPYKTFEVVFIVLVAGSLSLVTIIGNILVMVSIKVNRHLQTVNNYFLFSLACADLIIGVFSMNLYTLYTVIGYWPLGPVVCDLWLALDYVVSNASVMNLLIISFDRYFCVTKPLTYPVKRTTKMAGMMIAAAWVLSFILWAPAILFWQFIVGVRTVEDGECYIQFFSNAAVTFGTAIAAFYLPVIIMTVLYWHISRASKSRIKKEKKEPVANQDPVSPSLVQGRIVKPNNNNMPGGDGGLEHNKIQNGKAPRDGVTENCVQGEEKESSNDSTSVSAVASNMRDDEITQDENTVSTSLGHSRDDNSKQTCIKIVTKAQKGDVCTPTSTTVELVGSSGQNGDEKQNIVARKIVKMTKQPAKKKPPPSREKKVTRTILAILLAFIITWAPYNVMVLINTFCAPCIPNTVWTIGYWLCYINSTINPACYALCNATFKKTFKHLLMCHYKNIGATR
# [9] = 25 mg/kg i.v., listed as (±)-III AF122B
# [10] = 100 mg/kg p.o., listed as (±)-III AF122B
# [11] = 200 mg/kg p.o., listed as (±)-III AF122B
compound,measurement,setting,value
"CC1OCC2(CN3CCC2CC3)S1 (centres unmarked) [compound 8, 2-methylspiro(1,3-oxathiolan-4,3')quinuclidine]","Mortality, No. dead/total treated","[1]; 10 mg/kg i.v., listed as (±)-III AF122B",0/3
same,"Analgesia (nonresponsiveness to tail pinch), No. affected/total treated",[1]; [9],2/5
same,"Convulsive seizures, No. affected/total treated",[1]; [9],5/5
same,"Exophthalmus, No. affected/total treated",[1]; [9],2/5
same,"Mortality, No. dead/total treated",[1]; [9],3/5
same,"Respiratory distress, No. affected/total treated",[1]; [9],2/5
same,"Tremors, No. affected/total treated",[1]; [9],5/5
same,"Convulsive seizures, No. affected/total treated",[1]; 50 mg/kg i.v.,2/2
same,"Mortality, No. dead/total treated",[1]; 50 mg/kg i.v.,2/2
same,"Mortality, time after drug administration",[1]; 50 mg/kg i.v.,5 s
same,"Tremors, No. affected/total treated",[1]; 50 mg/kg i.v.,2/2
same,"Mortality, No. dead/total treated",[1]; 50 mg/kg p.o.,0/5
same,"Mortality, No. dead/total treated",[1]; 100 mg/kg i.v.,2/2
same,"Mortality, time after drug administration","[1]; 100 mg/kg i.v., immed = immediately",immed
same,"Analgesia (nonresponsiveness to tail pinch), No. affected/total treated",[1]; 100 mg/kg p.o.,4/4
same,"Convulsive seizures, No. affected/total treated",[1]; 100 mg/kg p.o.,4/4
same,"Vocalization, No. affected/total treated",[1]; 100 mg/kg p.o.,1/4
same,"Mortality, No. dead/total treated",[1]; [10],1/4
same,"Tremors, No. affected/total treated",[1]; [10],4/4
same,"Mortality, time after drug administration","[1]; 100 mg/kg p.o., m = minutes",15 m
same,"Analgesia (nonresponsiveness to tail pinch), No. affected/total treated",[1]; 200 mg/kg p.o.,4/4
same,"Respiratory distress, No. affected/total treated",[1]; 200 mg/kg p.o.,4/4
same,"Vocalization, No. affected/total treated",[1]; 200 mg/kg p.o.,2/4
same,"Convulsive seizures, No. affected/total treated",[1]; [11],4/4
same,"Mortality, No. dead/total treated",[1]; [11],4/4
same,"Tremors, No. affected/total treated",[1]; [11],4/4
same,"Mortality, time after drug administration","[1]; 200 mg/kg p.o., m = minutes",15 m
same,"a':b', Ki(3H-PZ):Ki(3H-QNB)",[2],0.11
same,Ki,"[2]; (a') frontal cortex, read-out: Ki(3H-PZ)",1.66 ± 0.24 µM
same,"a':c', Ki(3H-PZ):Ki(3H-CD)",[2]; (g) frontal cortex ratio,0.7
same,Desensitization,[3],desensitization that was observed
same,Blocking of the contractions by atropine (remarks),[3]; listed as AF122B,the contractions were only partially blocked by atropine
same,Contraction of guinea pig ileum (in words),[3]; listed as AF122B,contracted the ileum muscle
same,Ki,[4],2.3 µM
same,Ki,[5],15.3 ± 2.2 µM
same,Effect on ACh-induced contractions (in words),[6],consistently blocked ACh-induced contractions
same,"b':b""",[7],0.73
same,Ki,[8],21.1 ± 7.6 µM
